These results are taken from BindingDB's records for doi:10.1016/s0968-0896(99)00215-1 (Parke-Davis Pharmaceutical Research, 1999).

This experiment concerns the target T1, Dimer of Gag-Pol polyprotein [489-587] (Human immunodeficiency virus 1, UniProt P12497).
T1 construct: 489-587
The experiment is described as follows: Protease Inhibition Assay. On the procedure:
For determination of IC50 values, HIV-1 protease was added to assay buffer containing inhibitor and the substrate (H-His-Lys-Ala-Arg-Val-Leu- (p-NO2) Phe-Glu-Ala-norleucine-Ser-NH2). The Leu- (p-NO2) Phe bond of the substrate was cleaved by the enzyme, and the substrate and products were separated by reversed-phase HPLC. Absorbance was measured at 220 nm, peak areas were determined, and percentage conversion to product was calculated.

A word on the Ki: it is the equilibrium dissociation constant of an inhibitor or competing ligand from its target. Low values mean tighter binding, high ones weaker binding. The molecule `Cc1cc(SC2C(=O)C[C@](CCc3ccccc3)(C(C)C)OC2=O)c(C(C)(C)C)cc1CO` (stereo partly drawn) [(6R)-3-{[2-tert-butyl-4-(hydroxymethyl)-5-methylphenyl]sulfanyl}-4-hydroxy-6-(2-phenylethyl)-6-(propan-2-yl)-5,6-dihydro-2H-pyran-2-one] returned a Ki of 160 nM.
On the same count and under the same terms, the value for `Cc1cc(SC2C(=O)C[C@](CCc3ccc(N)cc3)(C(C)C)OC2=O)c(C(C)(C)C)cc1CO` (stereo partly drawn) [(6R)-6-[2-(4-aminophenyl)ethyl]-3-{[2-tert-butyl-4-(hydroxymethyl)-5-methylphenyl]sulfanyl}-4-hydroxy-6-(propan-2-yl)-5,6-dihydro-2H-pyran-2-one] was 25 nM; that for `Cc1cc(SC2C(=O)C[C@@](CCc3ccccc3)(C(C)C)OC2=O)c(C(C)(C)C)cc1CO` (stereo partly drawn) [(6S)-3-{[2-tert-butyl-4-(hydroxymethyl)-5-methylphenyl]sulfanyl}-4-hydroxy-6-(2-phenylethyl)-6-(propan-2-yl)-5,6-dihydro-2H-pyran-2-one] was 0.09 nM.
Same read-out and setting: then `Cc1cc(SC2C(=O)C[C@@](CCc3ccc(O)cc3)(C(C)C)OC2=O)c(C(C)(C)C)cc1CO` (stereo partly drawn) [(6S)-3-{[2-tert-butyl-4-(hydroxymethyl)-5-methylphenyl]sulfanyl}-4-hydroxy-6-[2-(4-hydroxyphenyl)ethyl]-6-(propan-2-yl)-5,6-dihydro-2H-pyran-2-one], with 0.09 nM; and `Cc1cc(SC2C(=O)C[C@@](CCc3ccc(N)cc3)(C(C)C)OC2=O)c(C(C)(C)C)cc1CO` (stereo partly drawn) [(6S)-6-[2-(4-aminophenyl)ethyl]-3-{[2-tert-butyl-4-(hydroxymethyl)-5-methylphenyl]sulfanyl}-4-hydroxy-6-(propan-2-yl)-5,6-dihydro-2H-pyran-2-one], with 0.11 nM.
What is called IC50 is the concentration at which inhibition is half-maximal. A high value points to weaker potency. For the molecule `Cc1cc(SC2C(=O)CC(CCc3ccc(O)cc3)(C3CCCCC3)OC2=O)c(C(C)(C)C)cc1CO` (stereo not drawn) [PD 178390 Analog 21], the IC50 (pH 6.2, 37 °C) worked out at 2.5 nM.
In the case of `Cc1cc(SC2C(=O)CC(CCc3ccc(O)cc3)(C(C)C)OC2=O)c(C(C)(C)C)cc1O` (stereo not drawn) [PD 178390 Analog 23], the Ki (pH 6.2, 37 °C) came to 0.03 nM.
Molecule `Cc1cc(SC2C(=O)CC(CCc3ccccc3)(c3ccccc3)OC2=O)c(C(C)(C)C)cc1CO` (stereo not drawn) [PD 178390 Analog 38] registered an IC50 of 6.5 nM.
